Experimental data reported in patent publication US20060223996A1, “IL-12 modulatory compounds” (Synta Pharmaceuticals Corp., priority 2004, published 2006).

The molecules below were run on IL-12 (assay: Human in vitro assay: inhibition of IL-12 production in IFNγ/LPS- or IFNγ/SAC-stimulated human PBMC or THP-1 cells (ELISA)). Details: read-out: IC50 Range (representative in vitro IC50 data).
Format: cell-based
Procedure, shortened: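 Sandwich ELISA for IL-12 (p70, p40) on supernatants collected 18 h after stimulation gave IC50 values; MTS monitored viability. THP-1 cells: IFNγ 100 U/mL priming 22 h, SAC 0.025%. PBMC: IFNγ 30 U/mL for 22 h plus LPS 1 μg/mL, or IFNγ 100 U/mL plus SAC 0.01%. Final DMSO 0.25%.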

Row | Compound | IC50
1 | O=C(Nc1cccc(N2CCCC2)c1)c1cc(OCCN2CCOCC2)nc(N2CCOCC2)n1 [Compound 278, 2-Morpholin-4-yl-6-(2-morpholin-4-yl-ethoxy)-pyrimidine-4-carboxylic acid (3-pyrrolidin-1-yl-phenyl)-amide] | < 1000 nM
2 | Cc1[nH]c2ccc(NC(=O)c3cc(N4CCOCC4)nc(N4C[C@@H](C)O[C@@H](C)C4)n3)cc2c1C [Compound 281, 2-(2,6-Dimethyl-morpholin-4-yl)-6-morpholin-4-yl-pyrimidine-4-carboxylic acid (2,3-dimethyl-1H-indol-5-yl)-amide] | < 1000 nM
3 | Cc1cc(C)cc(NC(=O)c2cc(OCCN3CCOCC3)nc(N3CCOCC3)n2)c1 [Compound 282, 2-Morpholin-4-yl-6-(2-morpholin-4-yl-ethoxy)-pyrimidine-4-carboxylic acid (3,5-dimethyl-phenyl)-amide] | < 1000 nM
4 | Cc1c(C)n(C)c2ccc(NC(=O)c3cc(N4CCOCC4)nc(N4CCOCC4)n3)cc12 [Compound 283, 2,6-Di-morpholin-4-yl-pyrimidine-4-carboxylic acid (1,2,3-trimethyl-1H-indol-5-yl)-amide] | < 1000 nM
5 | CNCCOc1cc(C(=O)Nc2ccc3c(c2)c(C)c(C)n3C)nc(N2CCOCC2)n1 [Compound 286, 6-(2-Methylamino-ethoxy)-2-morpholin-4-yl-pyrimidine-4-carboxylic acid (1,2,3-trimethyl-1H-indol-5-yl)-amide] | < 1000 nM
6 | Cc1cc(NC(=O)c2cc(OCCN3CCOCC3)nc(N3CCOCC3)n2)ccc1N(C)C [Compound 288, 2-Morpholin-4-yl-6-(2-morpholin-4-yl-ethoxy)-pyrimidine-4-carboxylic acid (4-dimethylamino-3-methyl-phenyl)-amide] | ≥ 1000 nM
7 | Cc1ccc(NC(=O)c2cc(OCCN3CCOCC3)nc(N3CCOCC3)n2)cc1N(C)C [Compound 290, 2-Morpholin-4-yl-6-(2-morpholin-4-yl-ethoxy)-pyrimidine-4-carboxylic acid (3-dimethylamino-4-methyl-phenyl)-amide] | < 1000 nM

Further lines, results first:

Row | IC50 | Compound
8 | < 1000 nM | Nc1cccc(NC(=O)c2cc(OCCN3CCOCC3)nc(N3CCOCC3)n2)c1 [Compound 277, 2-Morpholin-4-yl-6-(2-morpholin-4-yl-ethoxy)-pyrimidine-4-carboxylic acid (3-amino-phenyl)-amide]
9 | ≥ 1000 nM | COc1cccc(NC(=O)c2cc(OCCN3CCOCC3)nc(N3CCOCC3)n2)c1 [Compound 279, 2-Morpholin-4-yl-6-(2-morpholin-4-yl-ethoxy)-pyrimidine-4-carboxylic acid (3-methoxy-phenyl)-amide]
10 | < 1000 nM | CNc1cccc(NC(=O)c2cc(OCCN3CCOCC3)nc(N3CCOCC3)n2)c1 [Compound 280, 2-Morpholin-4-yl-6-(2-morpholin-4-yl-ethoxy)-pyrimidine-4-carboxylic acid (3-methylamino-phenyl)-amide]
11 | ≥ 1000 nM | O=C(Nc1ccc(Nc2ccccc2)cc1)c1cc(OCCN2CCOCC2)nc(N2CCOCC2)n1 [Compound 284, 2-Morpholin-4-yl-6-(2-morpholin-4-yl-ethoxy)-pyrimidine-4-carboxylic acid (4-phenylamino-phenyl)-amide]
12 | < 1000 nM | O=C(Nc1cccc(-n2cccc2)c1)c1cc(OCCN2CCOCC2)nc(N2CCOCC2)n1 [Compound 285, 2-Morpholin-4-yl-6-(2-morpholin-4-yl-ethoxy)-pyrimidine-4-carboxylic acid (3-pyrrol-1-yl-phenyl)-amide]
13 | ≥ 1000 nM | O=C(Nc1cccc(Cl)c1)c1cc(OCCN2CCOCC2)nc(N2CCOCC2)n1 [Compound 287, 2-Morpholin-4-yl-6-(2-morpholin-4-yl-ethoxy)-pyrimidine-4-carboxylic acid (3-chloro-phenyl)-amide]
14 | ≥ 1000 nM | CNc1ccc(NC(=O)c2cc(OCCN3CCOCC3)nc(N3CCOCC3)n2)cc1C [Compound 289, 2-Morpholin-4-yl-6-(2-morpholin-4-yl-ethoxy)-pyrimidine-4-carboxylic acid (3-methyl-4-methylamino-phenyl)-amide]
